Measured values from patent US20170182049A1, “NOVEL THERAPEUTICS FOR BRAIN CANCER” (The Regents of the University of California, priority 2012, published 2017).
Entries after “also recorded” stand apart in the source; their conditions may differ.

Assays:
U87 human GBM cells = experiment: U87 viability (Alamar Blue); type: cell-based; conditions: for IC50, U87 viability: U87 express low amounts of Olig2
Method: (§1) Culture and assay system: Ink4a/arfEGFR-VIII mouse cells and U87 human GBM cells were cultured in DMEM medium with 10% FBS. GBM4 and GBM8 patient-derived tumor neurosphere lines were cultured in stem cell medium supplemented with FGF and EGF. Primary normal human astrocytes (NHA) were cultured in astrocyte medium (Life Technologies, Grand Island N.Y.) with EGF. Cytotoxicity of the compounds was assessed by […] (MTT) reduction assay (for Ink4a/arfEGFR-VIII cells) as described earlier (Rajesh M et al., Journal of the American Chemical Society 129:11408-11420 (2007)) or by Alamar Blue assay (for all other cell types). For the MTT reduction assay, Ink4a/arfEGFR-VIII cells were grown in 96-well plates at a concentration of ˜2000 cells per well overnight and all assays were conducted in DMEM medium with 10% FBS and additives. For studies with inhibitor compounds, 10 mM stocks were serially diluted in dimethyl sulfoxide and further diluted into culture media to give appropriate concentrations while minimizing precipitation associated with serial dilutions in medium alone. Inhibitors were added to cells and left in the media for 72 hours. Cell viability for Ink4a/arfEGFR VIII cells was quantified at 540 nm after the addition of MTT (Sigma-Aldrich). Results were expressed as: […]
(§2) For GBM4, GBM8, U87, and NHA cell lines, viability was quantified by Alamar Blue Assay. In this assay, cells were treated with inhibitor compounds as described and Alamar Blue added after 72 hours. Emission values at 590 nm were measured after the addition of Alamar Blue. Dose-response curves for MTT assays and Alamar Blue Assays were plotted and IC50 values were calculated by using GraphPad Prism (GraphPad Prism Software, Inc., La Jolla, Calif.).

[1] = test system: normal human astrocytes (NHA); experiment: primary astrocyte viability (Alamar Blue); type: cell-based; conditions: for IC50, primary astrocyte viability: astrocytes express low amounts of Olig2
Method: as §1, §2

p21 = experiment: expression of p21, direct genetic target of OLIG2 (qPCR); type: cell-based, human
Text: (§3) FIGS. 17A-17B. OLIG2 inhibitor affects expression of direct genetic targets of OLIG2. […] (FIG. 17A) Escalating OLIG2 inhibitor doses led to increased levels of p21.
(§4) mRNA was extracted from different cell lines with the AllPrep DNA/RNA Mini Kit (Qiagen, Inc.), followed by cDNA synthesis using the iScript cDNA Synthesis Kit (Bio-Rad, Inc). To investigate single-gene expression patterns, individual gene primers were purchased from Allele Biotechnology and Pharmaceuticals Inc. SYBR Green Real Time PCR master mixes were purchased from Roche Corporation. qPCR was performed with primers specific for OLIG2, p21, and OMG genes. Individual gene expression was normalized to expression of beta-Actin. Histograms show mean and standard error of the mean (SEM) from three separate experiments.

OMG = experiment: expression of OMG, direct genetic target of OLIG2 (qPCR); type: cell-based, human
Text: as §3, §4

GBM4 cells = experiment: GBM4 neurosphere viability (Alamar Blue); type: cell-based, human; conditions: grown as neurospheres, inhibitor given alone
Method: as §1, with “For studies with inhibitor compounds, 10 mM stocks were serially diluted in dimethyl sulfoxide and further diluted into culture media to give appropriate concentrations while minimizing precipitation associated with serial dilutions in medium alone. Inhibitors were added to cells and left in the media for 72 hours.” left out
as §2, with “In this assay, cells were treated with inhibitor compounds as described and Alamar Blue added after 72 hours.” left out

GBM8 cells = experiment: GBM8 neurosphere viability (Alamar Blue); type: cell-based, human; conditions: grown as neurospheres, inhibitor given alone
Method: as §1, with “For studies with inhibitor compounds, 10 mM stocks were serially diluted in dimethyl sulfoxide and further diluted into culture media to give appropriate concentrations while minimizing precipitation associated with serial dilutions in medium alone. Inhibitors were added to cells and left in the media for 72 hours.” left out
as §2, with “In this assay, cells were treated with inhibitor compounds as described and Alamar Blue added after 72 hours.” left out

GBM4 neurospheres = experiment: GBM4 neurosphere formation, light microscopy; type: cell-based, human; conditions: 0.1 uM and 5 uM, 72 h
[2] = GBM4 cells, escalating doses (18 h in FIG. 17)

Row | SMILES | IC50, U87 viability (U87 human GBM cells) | IC50, primary astrocyte viability [1] | P21 levels (p21; FIG. 6, relative to vehicle control) | levels of OMG (OMG; FIG. 7, relative to vehicle control) | suppression of GBM4 cells (GBM4 cells) | suppression of GBM8 cells (GBM8 cells) | suppression of U87 cells (U87 human GBM cells; compared with GBM4/8 cells) | IC50 of NHA relative to GBM4 cells ([1]; NHA vs GBM4) [fold] | inhibition of neurosphere formation in GBM4 cells (active / inactive compound) (GBM4 neurospheres) | expression of p21 (p21; [2]) | expression of OMG (OMG; [2])
1 | CCN1CCCC(Nc2cc(C)nc(NC(=N)Nc3ccc(Cl)c(Cl)c3)n2)C1 (stereo not shown) [SKOG-101] | high | high | rose markedly | went down markedly | – | – | – | – | – | – | –
2 | CCN1CCCC(Nc2cc(C)nc(NC(=N)Nc3ccc(Cl)c(Cl)c3)n2)C1 (stereo not shown) [SKOG-102] | high | high | – | – | markedly suppressed; also recorded: active | markedly suppressed; also recorded: active | a higher dose was needed | ~20 | active | increased in a dose-dependent manner | suppressed; also recorded: decline
